# Assay results from PMC9060607 (RSC Advances, 2019).
# Where a name gives a salt, the structure may show the parent alone.
# Tests used:
# plasma CES = conditions: rat plasma, inhibitor 10 mM; cited from earlier work
# plasma esterases [1] = test: Inhibition of CDD hydrolysis in human plasma by esterase inhibitors; format: biochemical; conditions: for % inhibition of CDD hydrolysis: CDD 1.5 μM, 37 °C, 5 min
# plasma esterases [2] = test: Inhibition of CDD hydrolysis in rat plasma by esterase inhibitors; format: biochemical; conditions: for % inhibition of CDD hydrolysis: CDD 1.5 μM, 37 °C, 5 s
# plasma esterases [3] = test: Inhibition of CDD hydrolysis in dog plasma by esterase inhibitors; format: biochemical, beagle dog; conditions: for % inhibition of CDD hydrolysis: CDD 1.5 μM, 37 °C, 15 min
Compound,% inhibition of CDD hydrolysis (plasma esterases [1]; inhibitor 0.1 mM),% inhibition of CDD hydrolysis (plasma esterases [1]; inhibitor 1 mM),% inhibition of CDD hydrolysis (plasma esterases [2]; inhibitor 0.1 mM),% inhibition of CDD hydrolysis (plasma esterases [2]; inhibitor 1 mM),% inhibition of CDD hydrolysis (plasma esterases [3]; inhibitor 0.1 mM),% inhibition of CDD hydrolysis (plasma esterases [3]; inhibitor 1 mM),inhibition of CDD hydrolysis (in words) (plasma esterases [1]; concentration not given),inhibition of CDD hydrolysis (in words) (plasma esterases [2]; concentration not given),inhibition of CDD hydrolysis (in words) (plasma esterases [3]; concentration not given),other results
"O=[N+]([O-])c1ccc(OP(=O)(O)Oc2ccc([N+](=O)[O-])cc2)cc1 [BNPP, Bis(4-nitrophenyl) phosphate]",<10%,42.2 ± 6.7%,83.0 ± 8.9%,97.0 ± 7.7%,16.6 ± 8.2%,63.6 ± 1.8%,–,–,–,effect on ex vivo hydrolysis of CDD (plasma CES): inhibited; inhibition of CDD hydrolysis (in words) (plasma esterases [1]; inhibitor 1 mM): partial inhibition
"C=CC[N+](C)(C)c1ccc(CCC(=O)CCc2ccc([N+](C)(C)CC=C)cc2)cc1.[Br-].[Br-] [BW284c51, 1,5-bis(4-allyldimethylammoniumphenyl)pentan-3-one dibromide]",–,–,–,–,–,–,no inhibition,did not prevent,no inhibition,% inhibition of CDD hydrolysis (plasma esterases [1]; inhibitor 10 μM): <10%; % inhibition of CDD hydrolysis (plasma esterases [1]; inhibitor 100 μM): <10%; % inhibition of CDD hydrolysis (plasma esterases [2]; inhibitor 10 μM): <10%; % inhibition of CDD hydrolysis (plasma esterases [2]; inhibitor 100 μM): <10%; % inhibition of CDD hydrolysis (plasma esterases [3]; inhibitor 10 μM): <10%; % inhibition of CDD hydrolysis (plasma esterases [3]; inhibitor 100 μM): <10%
"O=C(O)c1cc(SSc2ccc([N+](=O)[O-])c(C(=O)O)c2)ccc1[N+](=O)[O-] [DTNB, 5,5′-dithiobis-2-nitrobenzoic acid]",<10%,52.0 ± 1.5%,<10%,<10%,<10%,47.8 ± 0.83%,–,did not prevent,–,inhibition of CDD hydrolysis (in words) (plasma esterases [1]; inhibitor 1 mM): moderate inhibition; inhibition of CDD hydrolysis (in words) (plasma esterases [3]; inhibitor 1 mM): moderate inhibition
"O=C([O-])CN(CCN(CC(=O)[O-])CC(=O)O)CC(=O)O.[Na+].[Na+] [EDTA, Ethylenediaminetetraacetic acid disodium]",–,–,–,–,–,–,no inhibition,did not prevent,no inhibition,% inhibition of CDD hydrolysis (plasma esterases [1]; inhibitor 5 mM): <10%; % inhibition of CDD hydrolysis (plasma esterases [1]; inhibitor 10 mM): <10%; % inhibition of CDD hydrolysis (plasma esterases [2]; inhibitor 5 mM): <10%; % inhibition of CDD hydrolysis (plasma esterases [2]; inhibitor 10 mM): <10%; % inhibition of CDD hydrolysis (plasma esterases [3]; inhibitor 5 mM): <10%; % inhibition of CDD hydrolysis (plasma esterases [3]; inhibitor 10 mM): <10%
"O=C(O)CN(CCOCCOCCN(CC(=O)O)CC(=O)O)CC(=O)O [EGTA, ethyleneglycol-bis(2-aminoethylether)-tetraacetic acid]",–,–,–,–,–,–,partially inhibited,–,fewer than those of the aforementioned esterase inhibitors,% inhibition of CDD hydrolysis (plasma esterases [1]; inhibitor 5 mM): 23.2 ± 11.4%; % inhibition of CDD hydrolysis (plasma esterases [1]; inhibitor 10 mM): 26.5 ± 3.6%; % inhibition of CDD hydrolysis (plasma esterases [2]; inhibitor 5 mM): <10%; % inhibition of CDD hydrolysis (plasma esterases [2]; inhibitor 10 mM): <10%; % inhibition of CDD hydrolysis (plasma esterases [3]; inhibitor 5 mM): 17.3 ± 6.1%; % inhibition of CDD hydrolysis (plasma esterases [3]; inhibitor 10 mM): 19.9 ± 8.0%
"CNC(=O)Oc1ccc2c(c1)[C@]1(C)CCN(C)[C@@H]1N2C [Eserine, eserine hemisulfate salt]",–,–,–,–,–,–,no inhibition,did not prevent,no inhibition,% inhibition of CDD hydrolysis (plasma esterases [1]; inhibitor 10 μM): <10%; % inhibition of CDD hydrolysis (plasma esterases [1]; inhibitor 100 μM): <10%; % inhibition of CDD hydrolysis (plasma esterases [2]; inhibitor 10 μM): <10%; % inhibition of CDD hydrolysis (plasma esterases [2]; inhibitor 100 μM): <10%; % inhibition of CDD hydrolysis (plasma esterases [3]; inhibitor 10 μM): <10%; % inhibition of CDD hydrolysis (plasma esterases [3]; inhibitor 100 μM): <10%
"CC(C)NP(=O)(NC(C)C)OP(=O)(NC(C)C)NC(C)C [Iso-OMPA, tetraisopropyl pyrophosphoramide]",<10%,<10%,99.5 ± 11.2%,108.3 ± 5.2%,16.9 ± 7.1%,17.6 ± 6.7%,no inhibition,–,fewer than those of the aforementioned esterase inhibitors,"% inhibition of CDD hydrolysis (plasma esterases [2]; inhibitor 0.1 mM, listed as iso-OMPA): > 80%"
"[F-].[Na+] [NaF, Sodium fluoride]",–,–,–,–,–,–,no inhibition,–,no inhibition,% inhibition of CDD hydrolysis (plasma esterases [1]; inhibitor 5 mM): <10%; % inhibition of CDD hydrolysis (plasma esterases [1]; inhibitor 10 mM): <10%; % inhibition of CDD hydrolysis (plasma esterases [2]; inhibitor 5 mM): <10%; inhibition of CDD hydrolysis (in words) (plasma esterases [2]; inhibitor 10 mM): partially prevented; % inhibition of CDD hydrolysis (plasma esterases [2]; inhibitor 10 mM): 24.4 ± 7.1%; % inhibition of CDD hydrolysis (plasma esterases [3]; inhibitor 5 mM): <10%; % inhibition of CDD hydrolysis (plasma esterases [3]; inhibitor 10 mM): <10%
"O=S(=O)(F)Cc1ccccc1 [PMSF, Phenylmethanesulfonyl fluoride]",<10%,<10%,<10%,96.0 ± 9.2%,<10%,29.6 ± 5.3%,no inhibition,–,–,effect on ex vivo hydrolysis of CDD (plasma CES): inhibited
"Cl.NCCc1ccc(S(=O)(=O)F)cc1 [Pefabloc® SC, 4-(2-aminoethyl-)benzenesulphonylfloride hydrochloride]",<10%,<10%,19.4 ± 2.1%,99.8 ± 7.9%,<10%,25.8 ± 3.1%,no inhibition,–,–,–
"Cc1ccc(S(=O)(=O)N[C@@H](CCCCN)C(=O)CCl)cc1.Cl [TLCK, N-α-tosyl-L-lysine chloromethylketone hydrochloride]",<10%,<10%,<10%,<10%,<10%,17.0 ± 10.3%,no inhibition,did not prevent,–,–
